Experimental data reported in PMC6684085, “Intragenic antimicrobial peptides (IAPs) from human proteins with potent antimicrobial and anti-inflammatory activity” (PLoS ONE, 2019).
Converted amounts (≈) assume the structure as drawn. “Also recorded” adds a separate entry of the source. Ends that are not written are not given here.

Legend:
human red blood cells = type: cell-based
Procedure: (§1) The cytotoxicity of Hs IAPs was performed using human red blood cells in strict accordance with relevant guidelines and regulations (Ethical committee–UnB # 1.939.989 as described elsewhere. Cytotoxic effect of IAPs was evaluated by MTT assay and flow cytometry analysis using murine peritoneal macrophages from C57BL/6 mice or a BALB/cN-derived macrophages (J774A.1) cell line. For cell viability assays using MTT, murine peritoneal macrophages from C57BL/6 mice were plated in triplicate wells in 96-well plates at a density of 1.0 × 10^5 cells per well and stimulated or not with different concentrations of Hs IAPs (0.1, 1 and 10 μM) and incubated for 24h. After that, 20μl of a solution of 3-(4,5-Dimethyl-thiazol-2-yl)-2,5-diphenyl-tetrazolium bromide (MTT, Sigma) was added to each well (5 mg/ml of MTT in phosphate buffered saline). The plates were incubated at 37°C for 3 hours and then processed as previously described. Cell death was analysed by annexin V-FITC/PI staining followed by flow cytometry analysis. Mouse BALB/cN macrophage (J774A.1) cell line was acquired from ATCC (number TIB-67) and cultured in Dulbecco’s Modified Eagle’s Medium (DMEM) (Life) supplemented with 10% heat inactivated foetal bovine serum (Life) and 1% antibiotic solution (100 IU/mL penicillin/100 μg/mL streptomycin, Life) at 37°C, 5% CO2, in a humidified atmosphere. J774A.1 cells were seeded into 96-well culture plates in DMEM culture medium for 2 h at 37°C and 5% CO2 in a humid atmosphere at a density of 1.0 × 10^5 cells, and stimulated or not with different concentrations of Hs IAPs (0.1, 1 and 10 μM). The plates were incubated for 24 h, washed in PBS, and resuspended in 100 μL of binding buffer (10 mM HEPES/NaOH pH 7.4, 140 mM NaCl, ad 2.5 mM CaCl2). Cells were then treated with 2 μL of annexin-V FITC in Aqueous buffered solution containing BSA and ≤0.09% sodium azide (BD Pharmingen) and 2 μL of propidium iodide (PI, 50 μg/mL) for 15 min in the dark at room temperature. Next, 100 μL binding buffer was added and a total of 20,000 events were collected per sample in flow cytometer (BD LSRFortessa).

[1] = test system: mouse BALB/cN macrophage (J774A.1) cell line; type: cell-based; details: for Viability of J774A.1 macrophages versus DMEM untreated control: 24 h exposure, peptide at 0.1, 1 and 10 μM, flow cytometry, 20,000 events/sample, p<0.05
Procedure: (§2) Fig 4 a. Cytotoxicity evaluation in the mouse BALB/cN macrophage (J774A.1) cell line after exposure for 24 h at 0.1, 1.0 and 10 μM concentrations. DMEM was used as a negative control. Cells were analyzed by flow cytometry (20,000 events/sample). b. Evaluation of the cell death mechanism mediated by Hs02 in J774A.1 cells after exposure for 24 h at 0.1, 1.0 and 10 μM concentrations using annexin-V FITC (apoptosis marker) and propidium iodide (PI, necrosis marker) staining. Cells were analyzed by flow cytometry (20,000 events/sample). The values are expressed as mean ± SEM. * p<0.05 and **** p<0.0001 versus DMEM untreated control group. # p<0.05 versus apoptosis staining for each respective group.
as §1, with “J774A.1 cells were seeded into 96-well culture plates in DMEM culture medium for 2 h at 37°C and 5% CO2 in a humid atmosphere at a density of 1.0 × 10^5 cells, and stimulated or not with different concentrations of Hs IAPs (0.1, 1 and 10 μM). The plates were incubated for 24 h, washed in PBS, and resuspended in 100 μL of binding buffer (10 mM HEPES/NaOH pH 7.4, 140 mM NaCl, ad 2.5 mM CaCl2). Cells were then treated with 2 μL of annexin-V FITC in Aqueous buffered solution containing BSA and ≤0.09% sodium azide (BD Pharmingen) and 2 μL of propidium iodide (PI, 50 μg/mL) for 15 min in the dark at room temperature. Next, 100 μL binding buffer was added and a total of 20,000 events were collected per sample in flow cytometer (BD LSRFortessa).” left out

Candida albicans 90028 = test: microbe, parasite or virus in culture; type: cell-based; details: ATCC90028, ATCC 90028, peptides 0.5 to 256 μM, 100 μL, 96-well, no cells seen by optical microscopy, three biological repetitions with 2 technical replicates, mean ± SD, read-out: Minimum inhibitory concentration (μM ± SD) C. albicans
Procedure: (§3) Protocols M7-A10 [46], M27-A3 [47] and M38-A2 [48] from Clinical & Laboratory Standards Institute (CLSI) were used to test the susceptibility of bacteria, yeasts and filamentous fungi to the Hs IAPs. Briefly, Hs IAPs ranging from 0.5 to 256 μM were tested against microorganisms in a final volume of 100μL. Tests were performed in polystyrene flat-bottom 96 wells microplates and each test consisted of three biological repetitions with 2 technical replicates each. The minimum inhibitory concentration (MIC) was defined as the concentration that no cells/hyphae were detected when visualized by optical microscopy. ATCC reference strains: Candida albicans 90028, Staphylococcus aureus 25923, Pseudomonas aeruginosa 27853, Trichophyton rubrum 28189, Staphylococcus epidermidis 12228.

[2] = test system: Staphylococcus aureus 25923; test: microbe, parasite or virus in culture; type: cell-based; details: ATCC 25923, peptides 0.5 to 256 μM, 100 μL, 96-well, three biological repetitions with 2 technical replicates, mean ± SD
Procedure: as §3

[3] = test system: Staphylococcus epidermidis 12228; test: microbe, parasite or virus in culture; type: cell-based; details: ATCC 12228, peptides 0.5 to 256 μM, 100 μL, 96-well, three biological repetitions with 2 technical replicates, mean ± SD
Procedure: as §3

[4] = test system: Pseudomonas aeruginosa 27853; test: microbe, parasite or virus in culture; type: cell-based; details: ATCC27853, ATCC 27853, peptides 0.5 to 256 μM, 100 μL, 96-well, three biological repetitions with 2 technical replicates, mean ± SD, read-out: Minimum inhibitory concentration (μM ± SD) P. aeruginosa
Procedure: as §3

[5] = test system: murine peritoneal macrophages from C57BL/6 mice; test: MTT reduction assay in primary macrophages; type: cell-based, mouse; details: 24 h incubation, triplicate wells (S1 Fig)
Procedure: as §1, with “J774A.1 cells were seeded into 96-well culture plates in DMEM culture medium for 2 h at 37°C and 5% CO2 in a humid atmosphere at a density of 1.0 × 10^5 cells, and stimulated or not with different concentrations of Hs IAPs (0.1, 1 and 10 μM). The plates were incubated for 24 h, washed in PBS, and resuspended in 100 μL of binding buffer (10 mM HEPES/NaOH pH 7.4, 140 mM NaCl, ad 2.5 mM CaCl2). Cells were then treated with 2 μL of annexin-V FITC in Aqueous buffered solution containing BSA and ≤0.09% sodium azide (BD Pharmingen) and 2 μL of propidium iodide (PI, 50 μg/mL) for 15 min in the dark at room temperature. Next, 100 μL binding buffer was added and a total of 20,000 events were collected per sample in flow cytometer (BD LSRFortessa).” left out

[6] = test system: mouse BALB/cN macrophage (J774A.1) cell line; test: Annexin-V FITC / propidium iodide staining by flow cytometry; type: cell-based; details: 24 h exposure at 0.1, 1.0 and 10 μM; flow cytometry, 20,000 events/sample
Procedure: as §2
The cytotoxicity of Hs IAPs was performed using human red blood cells in strict accordance with relevant guidelines and regulations (Ethical committee–UnB # 1.939.989 as described elsewhere. Cytotoxic effect of IAPs was evaluated by MTT assay and flow cytometry analysis using murine peritoneal macrophages from C57BL/6 mice or a BALB/cN-derived macrophages (J774A.1) cell line. For cell viability assays using MTT, murine peritoneal macrophages from C57BL/6 mice were plated in triplicate wells in 96-well plates at a density of 1.0 × 10^5 cells per well and stimulated or not with different concentrations of Hs IAPs (0.1, 1 and 10 μM) and incubated for 24h. […]

[7] = test system: murine peritoneal macrophages from C57BL/6 mice; test: LPS-induced TNF-α release by ELISA; type: cell-based, mouse; details: macrophages primed with 500 ng/mL LPS for 4 h, then peptide for 24 h, Hs02 at 0.1, 1 and 10 μM, DS01 at 1 and 10 μM
Procedure: Fig 5 TNF-α secretion and lipid droplet biogenesis evaluation. a. Murine peritoneal macrophages from C57BL/6 mice were pre-treated or not with LPS (500 ng/ml) for 4h and then stimulated or not with Hs IAPs (0.1, 1.0 and 10 μM), incubated for 24h and TNF-α levels measured by ELISA b. In parallel, murine peritoneal macrophages from C57BL/6 mice were pre-treated or not with LPS (500 ng/ml) for 4h and then stimulated or not with Hs IAPs (0.1 μM), incubated for 24h and lipid droplets were quantitated by flow cytometry (B). The values are expressed as mean ±SEM. * p<0.05 and **** p<0.0001 versus DMEM control group. […] The digits of 121, 119, 364 and 122 are best readings.
The modulation of pro-inflammatory cytokine TNF-α secretion induced by IAPs was evaluated by ELISA. […] Supernatant TNF-α concentration was detected by ELISA with a R&D Systems (USA) kit. […] Plates were read after adding the stop solution at 450nm using SpectraMax M3spectrophotometer (Molecular Devices).
Supplementary file pone.0220656.s004.tif: S3 Fig TNF-α release in murine macrophages. Murine peritoneal macrophages from C57BL/6 mice were pre-treated or not with LPS (500 ng/ml) for 4h and then stimulated or not with the AMP DS01 (10, and 1 μM), incubated for 24h and TNF-α levels measured by ELISA. The values are expressed as mean ±SEM. * p<0.05 and **** p<0.0001 versus DMEM control group. […]

In the case of GFKDLLKGAAKALVKTVLF-NH2 [Asc-8], the “Hemolytic activity SC50” value (human red blood cells) is reported as 32 µM.

OO [hydrogen peroxide (H2O2), hydrogen peroxide] was tested, and the “Viability of J774A.1 macrophages versus DMEM untreated control” value [1] was “decreased significantly (p<0.05) the cell viability”.

C[C@@H]1[C@H](O)[C@@H](C)/C=C/C=C/C=C/C=C/C=C/C=C/C=C/[C@H](O[C@@H]2O[C@H](C)[C@@H](O)[C@H](N)[C@@H]2O)C[C@@H]2O[C@](O)(C[C@@H](O)C[C@@H](O)[C@H](O)CC[C@@H](O)C[C@@H](O)CC(=O)O[C@H]1C)C[C@H](O)[C@H]2C(=O)O [Amphotericin b] gave an MIC (Candida albicans 90028) of 0.27 µM (≈ 0.25 µg/mL).

With CNC(C)C1CCC(N)C(OC2C(N)CC(N)C(OC3OCC(C)(O)C(NC)C3O)C2O)O1 (centres unmarked) [Gentamicin] the MIC ([2]; Staphylococcus aureus, ATCC25923, read-out: Minimum inhibitory concentration (μM ± SD) S. aureus) was 0.26 µM (≈ 0.124 µg/mL), the MIC ([3]; Staphylococcus epidermidis, ATCC12228, read-out: Minimum inhibitory concentration (μM ± SD) S. epidermidis) was 0.26 µM (≈ 0.124 µg/mL) and the MIC [4] was 0.13 µM (≈ 0.0621 µg/mL).

In the case of LKMLGMLFHNIRNILKTV-NH2 [Hs01], the “Hemolytic activity SC50” value (human red blood cells) is reported as over 128 µM.

CC1(C)S[C@@H]2[C@H](NC(=O)[C@H](N)c3ccccc3)C(=O)N2[C@H]1C(=O)O [Ampicilin] was tested, and the “Minimum inhibitory concentration (μM ± SD) S. aureus” value [2] was 5.38 ± 0.0 µM (≈ 1.88 µg/mL) and the “Minimum inhibitory concentration (μM ± SD) S. epidermidis” value [3] was 43.10 ± 0.0 µM (≈ 15.1 µg/mL).

For FLREFHKWIERVVGWLGKVF-NH2 [Hs03], the “Concentration that reduced the viability of peritoneal macrophages to 50%” value [5] was “approximately 10 μM” and the “Hemolytic activity SC50” value (human red blood cells) was over 128 µM.

With KWAVRIIRKFIKGFIS-NH2 [Hs02] the “Apoptosis (annexin-V FITC) or necrosis (PI) in J774A.1 cells versus DMEM control” value [6] was “did not present significant apoptosis or necrosis; also recorded: No significant apoptosis or necrosis”, the “Hemolytic activity SC50” value (human red blood cells) was over 128 µM and the “Viability of J774A.1 macrophages versus DMEM untreated control” value [1] was “did not cause significant (p<0.05) reduction in the viability”. For the same molecule, the “Concentration tolerated by the J774A.1 macrophage cell line” value ([1]; flow cytometry, 24 h, 0.1, 1 and 10 μM tested) was at least 10 µM.

For “GLWSTIKQKGKEAAIAAAKAAGQAALGAL-NH2 [DS01]”, the “Hemolytic activity SC50” value (human red blood cells) was over 128 µM and the “Peptide concentration that inhibits LPS-induced release of TNF-α” value [7] was over 10 µM.

For LFNNYITAALKLLEKLYKV-NH2 [Hs04], the “Concentration that reduced the viability of peritoneal macrophages to 50%” value [5] was “approximately 10 μM” and the “Hemolytic activity SC50” value (human red blood cells) was 64 µM.

With OC(Cn1cncn1)(Cn1cncn1)c1ccc(F)cc1F [Fluconazol] the MIC (Candida albicans 90028) was 1.63 µM (≈ 0.499 µg/mL).
